Data: patent US11046700B2, “Substituted imidazo[1,2-a]pyrazines, pyrazolo[1,5-c]pyrimidines, pyrazolo[1,5-a]pyridines, and purines for the treatment of schistosomiasis” (Merck Patent GmbH, priority 2017, dated 2021)

How the values were obtained:
HepG2 cell line = test: Cytotoxicity against human HepG2 cell lines; assay type: cell-based
[1] = tested on: S. mansoni juvenile worms; test: In vitro assay, S. mansoni juvenile worms; assay type: cell-based; settings: Schistosoma mansoni; S. mansoni juvenile worms, in vitro; read-out: (b) Juvenile
[2] = tested on: S. haemotobium adult worms; test: In vitro assay, S. haemotobium adult worms; assay type: cell-based; settings: read-out: (c) S. haemotobium
Procedure: (§1) The routine biological assays using adult or juvenile worms and cytotoxicity assays using MRC-5 cells have been disclosed previously in Mansour, N. R., et al. (2016). “High Throughput Screening Identifies Novel Lead Compounds with Activity against Larval, Juvenile and Schistosoma mansoni PLoS Negl Trap Dis 10(4): e0004659. Cytotoxicity assays using the HepG2 cell line were carried out as described in Molecular Diversity (2015) 19, 251-261.
(c) S. haemotobium adult worms

MRC-5 cells = test: Cytotoxicity against human MRC-5 cell line; assay type: cell-based
Procedure: as §1
(d) Cytotoxicity against human MRC-5 cell line

S. mansoni adult worms [3] = test: In vitro assay, S. mansoni adult worms; assay type: cell-based; settings: Schistosoma mansoni; S. mansoni adult worms, in vitro; read-out: (a) Adult
S. mansoni adult worms [4] = test: Mouse infection model, adult worms, oral treatment day 42 post infection, worm recovery; assay type: in vivo, Schistosoma mansoni; settings: mice
Procedure: (§2) Methods for the subcutaneous infection of mice and subsequent worm recovery were as described in Mansour et al (2016) except that infection was with 150 cercariae and the perfusion medium was citrate saline (0.9% sodium chloride, 1.5% tri-sodium citrate). Perfusion was carried out 8 days (adult infections) or 15 days (juvenile infections) after treatment. Perfuseate was collected into 30 mL universal tubes. RBC (Red Blood Cells) were removed by allowing the perfuseate to settle for 10 min, removal of most of the supernatant and washing once as above with 10 mL perfusion medium. A drop of dilute aqueous saponin solution was added to lyse any remaining RBC and the worm suspension poured into a grid-marked small petri dish. The tube was rinsed out into the petri dish and examined for any remaining worms. Worms were counted using a dissecting microscope. The mouse livers removed after perfusion were squashed between two thick glass plates and examined visually and any remaining worms added to those counted as above.
(§3) For testing efficacy against the juvenile worms, treatment was on day 25 post infection and for testing against the adult worms on day 42 post infection. Drugs were suspended in 7% Tween-80/3% Ethanol/double distilled water and drug dispersal was facilitated by vortexing and using a sonicating water bath (Formulation F1). Alternatively, drugs were suspended in 10% DMSO, 90% double distilled water containing 50 mM Na2HPO4 with 0.5% Tween-80 by first dissolving or suspending the drug in DMSO then adding the DMSO solution/suspension to the aqueous solution (Formulation F2). In a further set of conditions, drugs were first dissolved in DMSO, then diluted with corn oil to give a 5% DMSO+drug solution/suspension (Formulation F3)
(§4) The drug solution/suspensions were given by oral gavage at the rate of 10 ml/kg. Positive controls (artemether for juvenile worms and praziquantel for adult worms) were used in each experiment.

[5] = tested on: S. mansoni juvenile worms; test: Mouse infection model, juvenile worms, oral treatment day 25 post infection, worm recovery; assay type: in vivo, Schistosoma mansoni; settings: mice
Procedure: as §2, §3, §4

[6] = oral 200 mg/kg, Formulation F1, negative control 38.8 ± 5.4
[7] = oral 6.25 mg/kg, Formulation F1, negative control 33.8 ± 4.1
[8] = oral 12.5 mg/kg, Formulation F1, negative control 33.8 ± 4.1
[9] = oral 6.25 mg/kg, Formulation F3, negative control 32.6 ± 10.6
[10] = oral 25 mg/kg, Formulation F1, negative control 33.2 ± 9.09
[11] = oral 50 mg/kg, Formulation F1, negative control 33.8 ± 4.1
[12] = oral 100 mg/kg, Formulation F1, negative control 33.8 ± 4.1
[13] = oral 400 mg/kg, Formulation F1, negative control 33.8 ± 4.1
[14] = oral 400 mg/kg, Formulation F1, negative control 38.8 ± 5.4
[15] = oral 50 mg/kg, Formulation F1, negative control 33.2 ± 9.09

COc1ccc(-c2c(C(C)C)nc3cnc(-c4cccc(C(F)(F)F)c4)cn23)cc1O [Example 1, 2-methoxy-5-[2-(propan-2-yl)-6-[3-(trifluoromethyl)phenyl]imidazo[1,2-a]pyrazin-3-yl]phenol]
(e) Cytotox HepG2 (HepG2 cell line): >11.1 µM | IC50 [1]: 13 nM | IC50 [2]: < 195 nM | (d) Cytotox MRC-5 (MRC-5 cells): 21.8 µM | IC50 (S. mansoni adult worms [3]): 58 nM

Cc1nc2cnc(-c3cccc(C(F)(F)F)c3)cn2c1-c1ccc(O)cc1F [Example 6, 3-fluoro-4-[2-methyl-6-[3-(trifluoromethyl)phenyl]imidazo[1,2-a]pyrazin-3-yl]phenol]
IC50 [1]: 480 nM | (d) Cytotox MRC-5 (MRC-5 cells): 15.8 µM | IC50 (S. mansoni adult worms [3]): 290 nM

CCc1nc2cnc(-c3cccc(C(F)(F)F)c3)cn2c1-c1ccc(OC)c(O)c1 [Example 7, 2-methoxy-5-[2-ethyl-6-[3-(trifluoromethyl)phenyl]imidazo[1,2-a]pyrazin-3-yl]phenol]
(e) Cytotox HepG2 (HepG2 cell line): >30 µM | IC50 [1]: 82 nM | (d) Cytotox MRC-5 (MRC-5 cells): >50 µM | IC50 (S. mansoni adult worms [3]): 90 nM

CCc1nc2cnc(-c3cccc(C(F)(F)F)c3)cn2c1-c1ccc(O)cc1F [Example 8, 3-fluoro-4-[2-ethyl-6-[3-(trifluoromethyl)phenyl]imidazo[1,2-a]pyrazin-3-yl]phenol]
(e) Cytotox HepG2 (HepG2 cell line): 18.7 µM | IC50 [1]: 86 nM | IC50 [2]: < 1560 nM | (d) Cytotox MRC-5 (MRC-5 cells): 17.3 µM | IC50 (S. mansoni adult worms [3]): 100 nM

CC(C)c1nc2cnc(-c3cccc(C(F)(F)F)c3)cn2c1-c1ccc(O)cc1F [Example 9, 3-fluoro-4-[2-(propan-2-yl)-6-[3-(trifluoromethyl)phenyl]imidazo[1,2-a]pyrazin-3-yl]phenol]
(e) Cytotox HepG2 (HepG2 cell line): 9 µM | IC50 [1]: 79 nM | (d) Cytotox MRC-5 (MRC-5 cells): 13.7 µM | IC50 (S. mansoni adult worms [3]): 76 nM

Cc1nc2cnc(-c3ccc(F)c(C(F)(F)F)c3)cn2c1-c1ccc(O)cc1F [Example 10, 3-fluoro-4-[2-methyl-6-[4-fluoro-3-(trifluoromethyl)phenyl]imidazo[1,2-a]pyrazin-3-yl]phenol]
(e) Cytotox HepG2 (HepG2 cell line): >11.1 µM | IC50 [1]: 530 nM | (d) Cytotox MRC-5 (MRC-5 cells): 14.4 µM | IC50 (S. mansoni adult worms [3]): < 780 nM

Cc1nc2cnc(-c3ccc(F)c(C(F)(F)F)c3)cn2c1-c1c(F)cc(O)cc1F [Example 16, 3,5-difluoro-4-[2-methyl-6-[4-fluoro-3-(trifluoromethyl)phenyl]imidazo[1,2-a]pyrazin-3-yl]phenol]
(e) Cytotox HepG2 (HepG2 cell line): 7.6 µM | IC50 [1]: 220 nM | IC50 [2]: 40 nM | IC50 (S. mansoni adult worms [3]): 120 nM

CC(C)c1nc2cnc(-c3ccc(F)c(C(F)(F)F)c3)cn2c1-c1c(F)cc(O)cc1F [Example 17, 3,5-difluoro-4-[2-(propan-2-yl)-6-[4-fluoro-3-(trifluoromethyl)phenyl]imidazo[1,2-a]pyrazin-3-yl]phenol]
Mean worm recovery (S. mansoni adult worms [4]; [6]): 0.3 ± 0.8 | Percent worm reduction (S. mansoni adult worms [4]; [6]): 99% | (e) Cytotox HepG2 (HepG2 cell line): 7.1 µM | IC50 [1]: 26 nM | IC50 [2]: 23 nM | IC50 (S. mansoni adult worms [3]): 44 nM | Mean worm recovery ([5]; oral 50 mg/kg, Formulation F1, negative control 33.0 ± 7.2): 20.6 ± 8.5 | Mean worm recovery ([5]; oral 200 mg/kg, Formulation F1, negative control 33.0 ± 7.2): 5.2 ± 3.1

COc1cc(-c2c(C(C)C)nc3cnc(-c4cccc(C(F)(F)F)c4)cn23)cc2cn[nH]c12 [Example 22, 7-methoxy-5-{2-(propan-2-yl)-6-[3-trifluoromethylphenyl]imidazo[1,2-a]pyrazin-3-yl}-1H-indazole]
IC50 [1]: 530 nM | IC50 [2]: 150 nM | IC50 (S. mansoni adult worms [3]): 430 nM

Fc1ccc(-c2cn3c(-c4ccc5[nH]ncc5c4F)c(C(F)(F)F)nc3cn2)cc1C(F)(F)F [Example 50, 3-(4-Fluoro-1H-indazol-5-yl)-6-(4-fluoro-3-trifluoromethylphenyl)-2-trifluoromethyl-imidazo[1,2-a]pyrazine]
Mean worm recovery (S. mansoni adult worms [4]; [7]): 7.4 ± 8.1 | Percent worm reduction (S. mansoni adult worms [4]; [7]): 78% | Mean worm recovery (S. mansoni adult worms [4]; [8]): 0.2 | Percent worm reduction (S. mansoni adult worms [4]; [8]): 99% | IC50 [1]: 60 nM | Mean worm recovery [5, 9]: 17.6 ± 12.0 | Percent worm reduction [5, 9]: 46% | Mean worm recovery [5, 10]: 0.8 ± 0.84 | Percent worm reduction [5, 10]: 98%

Fc1ccc(-c2cn3c(-c4ccc5[nH]ncc5c4F)c(C(F)(F)F)nc3cn2)cc1C(F)(F)C(F)(F)F [Example 63, 3-(4-Fluoro-1H-indazol-5-yl)-6-(4-fluoro-3-pentafluoroethyl-phenyl)-2-trifluoromethyl-imidazo[1,2-a]pyrazine]
(e) Cytotox HepG2 (HepG2 cell line): 11.7 µM | IC50 [1]: 10 nM | IC50 [2]: < 6 nM | IC50 (S. mansoni adult worms [3]): 11 nM | Mean worm recovery [5, 9]: 0.6 ± 1.0 | Percent worm reduction [5, 9]: 98%

O=C(C1CCCCC1)N1CC(=O)N2CCc3ccccc3C2C1 (centres unmarked) [Praziquantel, praziquantel]
Mean worm recovery (S. mansoni adult worms [4]; [11]): 29.8 ± 8.4 | Percent worm reduction (S. mansoni adult worms [4]; [11]): 13% | Mean worm recovery (S. mansoni adult worms [4]; [12]): 12.2 ± 6.3 | Percent worm reduction (S. mansoni adult worms [4]; [12]): 64% | Mean worm recovery (S. mansoni adult worms [4]; [13]): 2.6 ± 1.5 | Percent worm reduction (S. mansoni adult worms [4]; [13]): 92% | Mean worm recovery (S. mansoni adult worms [4]; [14]): 2.3 ± 1.7 | Percent worm reduction (S. mansoni adult worms [4]; [14]): 94% | Mean worm recovery [5, 15]: 26.2 ± 9.44 | Percent worm reduction [5, 15]: 21%
